# Measured values reported in article PMC9143821, “Design and Synthesis of a Novel 4-aryl-N-(2-alkoxythieno [2,3-b]pyrazine-3-yl)-4-arylpiperazine-1-carboxamide DGG200064 Showed Therapeutic Effect on Colon Cancer through G2/M Arrest” (Pharmaceuticals, 2022).
# Where two headings read alike, the source gives them in different places.
# Legend:
# [1] = Solubility (logS); assay type: physicochemical; conditions: for solubility: thermodynamic from solid, read-out: Solubility (logS) Equilibrium (converted)
# Description: Table 4 Physicochemical Properties of the Lead Compounds 7c. | column: 7c
# [2] = system: FBXW7/c-Jun interaction; experiment: Immunoprecipitation, ubiquitination and FBXW7/c-Jun interaction; assay type: cell-based, human
# Description: To investigate whether the ubiquitination of c-Jun is suppressed through the inhibition of c-Jun and FBXW7 binding by DGG200064, c-Jun immunoprecipitation was done to observe protein–protein interaction (Figure 4). E3 ligase, such as FBXW7, binds the protein to the ubiquitin chain through covalent bonds and rapidly degrades the protein through 26S proteasome. When treated with MG132 as a proteasome inhibitor, the ubiquitination of c-Jun increased compared to both control HCT116 and DLD1 cells. In contrast, the c-Jun ubiquitination was inhibited by DGG200064. The binding between c-Jun and FBXW7 was reduced with DGG200064 treatment. The FBXW7 protein, also known as CDC4, is a component of the SCF complex ubiquitin ligase and is known as a modulator of several substrates including cyclin E, c-Myc, c-Jun, and Notch. To check the selectivity of DGG200064 towards FBXW7 substrates, the change of c-Jun, cyclin E, and c-Myc by DGG200064 was analyzed. […] Cyclin E immunoprecipitation was done to test whether the ubiquitination of cyclin E by FBXW7 is inhibited by DGG200064 in HCT116 (Figure S2b, Supplementary Materials). There were no changes in cyclin E ubiquitination with DGG200064 treatment.
# To identified ubiquitination of c-Jun by DGG200064, HCT116 cells were treated with/without MG132 (10 μM) for 6h, DGG200064 (50 nM) for 18 h. The cell lysate was prepared using RIPA buffer for immunoprecipitation. Each lysate was mixed with antibodies (1 μg/mL) of c-Jun or MYC at 4 °C overnight in immunoprecipitation buffer containing 50 mM Tris-Cl,150 mM NaCl, 1 mM EDTA, 0.5% Triton X-100, pH 7.4, and reacted with 10 μL of protein A/G beads UltraLink Resin (50:50 resin: buffer slurry condition) (Peirce, #35133) for 2 h on RT for precipitation. After reaction and centrifugation at 3000 rpm for 3 min, the immunoprecipitated samples were washed with 500 μL of immunoprecipitation buffer by tapping and centrifuged. The washing was repeated five times before western blotting.
# [3] = system: HCT116 and DLD1 cells; experiment: Immunoblotting of cell cycle and FBXW7 substrate proteins; assay type: cell-based, human; conditions: 6 h
# Protocol: HCT116 and DLD1 cells were exposed to increasing concentrations of DGG200064 (0, 10, 50, 100 nM) for 6 h. […] Moreover, there were increased levels of c-Jun by DGG200064 (50 nM) treatment in other 6-colon cancer cells (Figure S1, Supplementary Materials). c-Jun is a component of the transcription factor activator protein 1 (AP-1), which is activated by a variety of extracellular stimuli, such as growth factors and UV irradiation. In cancer cells, activation of c-Jun promotes down-stream target gene transcription, and it is involved in cell proliferation, growth, division, and apoptosis. […] To test whether DGG200064 could induce G2/M cell cycle arrest through the increasing of c-Jun level, the two genes were silenced using c-Jun siRNAs and treated with DGG200064 in HCT116 and DLD1 cells (Figure 3c). When c-Jun was silenced, the amount of cyclin B protein treated by DGG200064 decreased. […]
# The whole-cell lysate was prepared using Radioimmunoprecipitation assay buffer (RIPA buffer) prepared in 50 mM Tris-HCl, pH 8.0, with 150 mM sodium chloride, 1.0% Igepal CA-630 (NP-40), 0.5% sodium deoxycholate, 0.1% sodium dodecyl sulfate, protease inhibitor cocktail, and phosphatase inhibitor cocktail. […] Membranes were washed five times with TBST, and chemiluminescence was detected using Westsave™ (Abfrontier, Seoul, Korea). […]
# [4] = Pharmacokinetics in ICR mice; assay type: in vivo; conditions: mouse, plasma, 5 mg/kg
smiles,measurement,setting,value
"COc1cc(OC)cc(N2CCN(C(=O)Nc3nc4sccc4nc3OC)CC2)c1 [Compound 7c, 4-(3,5-Dimethoxyphenyl)-N-(2-methoxythieno[2,3-b]pyrazin-3-yl)piperazine-1-carboxamide]",solubility,"[1]; pH 2, aqueous buffer, pH2.0",2090 µM
same,solubility kinetic,"[1]; pH 7.4, aqueous buffer, kinetic from dmso stock, pH7.4",741 µM
same,solubility,"[1]; pH 7.4, aqueous buffer, pH7.4",603 µM
same,solubility,"[1]; pH 9, aqueous buffer, pH9.0",617 µM
same,cyclin E ubiquitination,"[2]; HCT116, cyclin E immunoprecipitation",no changes
same,binding between c-Jun and FBXW7,"[2]; HCT116 and DLD1, 50 nM, 18 h, c-Jun immunoprecipitation",reduced
same,c-Jun ubiquitination,"[2]; HCT116 and DLD1, DGG200064 50 nM 18 h, MG132 10 μM 6 h",inhibited
same,cyclin E and c-Myc levels,"[3]; HCT116, 0, 10, 50, 100 nM",not affected
same,"cyclin B1, c-Jun and p-c-Jun levels","[3]; HCT116 and DLD1, 0, 10, 50, 100 nM",dose-dependent increase
same,AUC(0-inf),[4]; IV,16600 ng·h/mL
same,AUC(0-t),[4]; IV,16400 ng·h/mL
same,clearance,[4]; IV,5.08 mL/min/kg
same,half-life,[4]; IV,2.98 h
same,AUC(0-inf),[4]; PO,2340 ng·h/mL
same,AUC(0-t),[4]; PO,2260 ng·h/mL
same,Cmax,[4]; PO,798 ng/mL
same,Tmax,[4]; PO,0.667 h
same,bioavailability,[4]; PO,13.8%
same,half-life,[4]; PO,5.2 h
